From US6855843B2, “Inhibitors of α4 mediated cell adhesion” (Tanabe Seiyaku Co., Ltd., priority 1998, dated 2005)

Assays:
[1] = target: T1, α4β7 (adhesion of RPMI cells to CS-1) (Homo sapiens, UniProt P13612+P26010); test: RPMI-CS-1 cell adhesion assay; type: cell-based; details: adhesion of RPMI B-cell line (expresses α4β7) to CS-1 peptide coated microwells; read-out: RPMI-CS-1 IC50 value range
T1 construct: endogenous in cells
T1 sequence (P13612 34-1032): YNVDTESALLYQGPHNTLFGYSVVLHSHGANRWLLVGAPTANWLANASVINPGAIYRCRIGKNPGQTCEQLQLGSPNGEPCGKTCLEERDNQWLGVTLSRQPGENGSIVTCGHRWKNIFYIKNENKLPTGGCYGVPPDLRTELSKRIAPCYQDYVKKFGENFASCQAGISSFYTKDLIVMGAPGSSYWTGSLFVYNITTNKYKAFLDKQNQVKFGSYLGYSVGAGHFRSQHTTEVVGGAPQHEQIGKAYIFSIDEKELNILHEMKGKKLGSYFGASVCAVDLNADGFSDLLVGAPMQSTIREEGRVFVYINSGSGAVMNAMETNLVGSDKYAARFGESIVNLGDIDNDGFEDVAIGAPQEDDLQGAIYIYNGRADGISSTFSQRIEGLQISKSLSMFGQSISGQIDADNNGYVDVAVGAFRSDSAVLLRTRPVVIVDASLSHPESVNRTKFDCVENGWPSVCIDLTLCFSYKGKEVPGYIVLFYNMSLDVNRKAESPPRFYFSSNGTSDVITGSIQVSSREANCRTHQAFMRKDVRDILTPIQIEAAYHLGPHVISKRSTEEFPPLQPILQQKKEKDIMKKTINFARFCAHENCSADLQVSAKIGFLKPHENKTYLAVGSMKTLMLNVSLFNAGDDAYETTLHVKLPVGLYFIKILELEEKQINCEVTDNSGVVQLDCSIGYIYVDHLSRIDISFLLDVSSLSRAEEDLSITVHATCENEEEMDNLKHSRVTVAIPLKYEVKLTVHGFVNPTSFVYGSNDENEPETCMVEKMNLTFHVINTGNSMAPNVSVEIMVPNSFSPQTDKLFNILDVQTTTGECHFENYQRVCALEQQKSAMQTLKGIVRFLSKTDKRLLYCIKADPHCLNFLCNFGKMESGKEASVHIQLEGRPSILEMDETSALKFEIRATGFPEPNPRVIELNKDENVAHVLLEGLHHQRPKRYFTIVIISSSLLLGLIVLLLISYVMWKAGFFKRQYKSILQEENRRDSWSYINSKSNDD
T1 sequence (P26010 20-798): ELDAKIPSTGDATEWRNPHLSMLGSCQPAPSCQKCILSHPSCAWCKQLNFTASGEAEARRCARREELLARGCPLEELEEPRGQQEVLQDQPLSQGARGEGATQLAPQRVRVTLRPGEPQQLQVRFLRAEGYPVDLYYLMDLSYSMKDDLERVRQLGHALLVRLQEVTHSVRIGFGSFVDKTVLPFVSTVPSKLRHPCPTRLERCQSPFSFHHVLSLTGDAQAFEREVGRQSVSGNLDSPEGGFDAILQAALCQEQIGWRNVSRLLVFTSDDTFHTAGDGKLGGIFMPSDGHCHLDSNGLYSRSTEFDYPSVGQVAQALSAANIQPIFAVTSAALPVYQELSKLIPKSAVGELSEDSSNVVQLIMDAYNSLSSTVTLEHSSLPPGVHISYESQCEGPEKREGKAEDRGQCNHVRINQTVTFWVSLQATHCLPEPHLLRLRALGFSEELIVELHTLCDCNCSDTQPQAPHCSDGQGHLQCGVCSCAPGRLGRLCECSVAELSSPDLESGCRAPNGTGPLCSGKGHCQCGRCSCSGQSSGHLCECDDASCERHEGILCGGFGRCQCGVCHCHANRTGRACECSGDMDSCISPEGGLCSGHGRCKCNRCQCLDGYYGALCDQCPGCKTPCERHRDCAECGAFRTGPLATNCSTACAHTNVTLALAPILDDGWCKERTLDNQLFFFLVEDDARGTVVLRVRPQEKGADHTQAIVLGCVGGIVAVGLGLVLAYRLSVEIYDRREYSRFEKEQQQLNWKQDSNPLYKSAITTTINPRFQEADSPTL

Compound: COc1cccc(OC)c1-c1ccc(C[C@H](NC(=O)c2c(Cl)cc(NS(=O)(=O)c3cccs3)cc2Cl)C(=O)O)cc1 [Example 193, N-[2,6-Dichloro-4-[(2-thienylsulfonyl)amino]benzoyl]-4-(2,6-dimethoxyphenyl)-L-phenylalanine]
- IC50 [1]: < 300 nM
- melting point: 141 to 142 °C

Compound: CCNC(=S)Nc1ccc(C(=O)N[C@@H](Cc2ccc(-c3ccccc3OC)cc2)C(=O)O)c(Cl)c1 [Example 196]
- IC50 [1]: < 300 nM
- melting point: 155 to 156 °C

Compound: COc1ccccc1-c1ccc(C[C@H](NC(=O)c2ccc(NC(=S)Nc3ccccc3)cc2Cl)C(=O)O)cc1 [Example 197]
- IC50 [1]: 300 to 1000 nM
- melting point: 145 to 146 °C

Compound: COc1cccc(OC)c1-c1ccc(C[C@H](NC(=O)c2c(Cl)cc(NC(C)=O)cc2Cl)C(=O)O)cc1 [Example 199]
- IC50 [1]: < 300 nM
- melting point: 227 to 229 °C

Compound: CCOC(=O)Nc1cc(Cl)c(C(=O)N[C@@H](Cc2ccc(-c3c(OC)cccc3OC)cc2)C(=O)O)c(Cl)c1 [Example 200]
- IC50 [1]: < 300 nM
- melting point: 185 to 187 °C

Compound: COC(=O)Nc1cc(Cl)c(C(=O)N[C@@H](Cc2ccc(-c3c(OC)cccc3OC)cc2)C(=O)O)c(Cl)c1 [Example 201]
- IC50 [1]: < 300 nM
- melting point: 147 to 149 °C

Compound: COc1cccc(OC)c1-c1ccc(C[C@H](NC(=O)c2c(Cl)cc(NC(=O)Nc3ccccc3C)cc2Cl)C(=O)O)cc1 [Example 202]
- IC50 [1]: < 300 nM
- melting point: 182 to 184 °C

Compound: CNC(=O)Nc1cc(Cl)c(C(=O)N[C@@H](Cc2ccc(-c3c(OC)cccc3OC)cc2)C(=O)O)c(Cl)c1 [Example 203]
- IC50 [1]: < 300 nM
- melting point: 110 to 112 °C

Compound: COc1cccc(OC)c1-c1ccc(C[C@H](NC(=O)c2c(Cl)cc(NC(N)=O)cc2Cl)C(=O)O)cc1 [Example 204]
- IC50 [1]: < 300 nM
- melting point: 220 to 221 °C

Compound: COc1ccc(C(N)=O)c(OC)c1-c1ccc(C[C@H](NC(=O)c2c(Cl)cc(NC(N)=O)cc2Cl)C(=O)O)cc1 [Example 205, N-(4-Ureido-2,6-dichlorobenzoyl)-4-(3-carbamoyl-2,6-dimethoxyphenyl)-L-phenylalanine]
- IC50 [1]: < 300 nM
- melting point: 217 to 219 °C

Compound: COc1cccc(OC)c1-c1ccc(C[C@H](NC(=O)c2c(Cl)cc(N)cc2Cl)C(=O)O)cc1 [Example 206, N-(4-Amino-2,6-dichlorobenzoyl)-4-(2,6-dimethoxyphenyl)-L-phenylalanine]
- IC50 [1]: < 300 nM
- melting point: 221 to 222 °C (dec.)

Compound: COc1cccc(OC)c1-c1ccc(C[C@H](NC(=O)c2c(Cl)cc(Br)cc2Cl)C(=O)O)cc1 [Example 207]
- IC50 [1]: < 300 nM
- melting point: 184 to 185 °C

Compound: COc1cccc(OC)c1-c1ccc(C[C@H](NC(=O)c2c(Cl)cc(O)cc2Cl)C(=O)O)cc1 [Example 208]
- IC50 [1]: < 300 nM
- melting point: 252 to 253 °C

Compound: COc1ccccc1-c1ccc(C[C@H](NC(=O)c2ccc(Br)cc2Cl)C(=O)O)cc1 [Example 212]
- IC50 [1]: 1000 to 5000 nM
- melting point: 62 to 63 °C

Compound: COc1ccccc1-c1ccc(C[C@H](NC(=O)C(C)c2c(Cl)cccc2Cl)C(=O)O)cc1 (stereo partly drawn) [Example 213, N-[2-(2,6-Dichlorophenyl)propionyl]-4-(2-methoxyphenyl)-L-phenylalanine]
- IC50 [1]: 1000 to 5000 nM
- melting point: 109 to 110 °C

Compound: CC(=O)c1ccc(-c2ccc(C[C@H](NC(=O)c3c(Cl)cccc3Cl)C(=O)O)cc2)s1 [Example 215, N-(2,6-Dichlorobenzoyl)-4-(5-acetyl-2-thienyl)-L-phenylalanine]
- IC50 [1]: 300 to 1000 nM
- melting point: 194 to 195 °C

Compound: COc1cccc(OCCO)c1-c1ccc(C[C@H](NC(=O)c2c(Cl)cccc2Cl)C(=O)O)cc1 [Example 227, N-(2,6-Dichlorobenzoyl)-4-[6-methoxy-2-(2-hydroxyethoxy)phenyl]-L-phenylalanine]
- IC50 [1]: < 300 nM
- melting point: 158 to 159 °C

Compound: COc1cccc(OCCF)c1-c1ccc(C[C@H](NC(=O)c2c(Cl)cccc2Cl)C(=O)O)cc1 [Example 228, N-(2,6-Dichlorobenzoyl)-4-[6-methoxy-2-(2-fluoroethoxy)phenyl]-L-phenylalanine]
- IC50 [1]: < 300 nM
- melting point: 206 to 207 °C

Compound: O=C(N[C@@H](Cc1ccc(-c2c(OCCO)cccc2OCCO)cc1)C(=O)O)c1c(Cl)cccc1Cl [Example 229]
- IC50 [1]: < 300 nM
- melting point: 124 to 125 °C

Compound: O=C(N[C@@H](Cc1ccc(-c2c(OCC(F)(F)F)cccc2OCC(F)(F)F)cc1)C(=O)O)c1c(Cl)cccc1Cl [Example 230]
- IC50 [1]: 300 to 1000 nM
- melting point: 93 to 94 °C

Compound: N#CCOc1cccc(OCC#N)c1-c1ccc(C[C@H](NC(=O)c2c(Cl)cccc2Cl)C(=O)O)cc1 [Example 231]
- IC50 [1]: < 300 nM
- melting point: 175 to 176 °C

Compound: CN(C)CCOc1cccc(O)c1-c1ccc(C[C@H](NC(=O)c2c(Cl)cccc2Cl)C(=O)O)cc1 [Example 232]
- IC50 [1]: < 300 nM
- melting point: 168 to 169 °C

Compound: COCCOc1ccc2c(c1-c1ccc(C[C@H](NC(=O)c3c(Cl)cccc3Cl)C(=O)O)cc1)OCO2 [Example 233, N-(2,6-Dichlorobenzoyl)-4-[2,3-methylenedioxy-6-(2-methoxyethoxy)phenyl]-L-phenylalanine]
- IC50 [1]: 300 to 1000 nM
- melting point: 167 to 168 °C

Compound: COc1ccc2c(c1-c1ccc(C[C@H](NC(=O)c3c(Cl)cccc3Cl)C(=O)O)cc1)OCCO2 [Example 241, N-(2,6-Dichlorobenzoyl)-4-(2,3-ethylenedioxy-6-methoxyphenyl)-L-phenylalanine]
- IC50 [1]: < 300 nM
- melting point: 218 °C

Compound: CNCc1cc(OC)c(-c2ccc(C[C@H](NC(=O)c3c(Cl)cccc3Cl)C(=O)O)cc2)c(OC)c1 [Example 242, N-(2,6-Dichlorobenzoyl)-4-[2,6-dimethoxy-4-[(methylamino)methyl]phenyl]-L-phenylalanine]
- IC50 [1]: < 300 nM
- melting point: 274 °C

Compound: COc1cc(CN2CC[S+]([O-])CC2)cc(OC)c1-c1ccc(C[C@H](NC(=O)c2c(Cl)cccc2Cl)C(=O)O)cc1 [Example 263B, N-(2,6-Dichlorobenzoyl)-4-[2,6-dimethoxy-4-(thiomorpholinomethyl)phenyl]-L-phenylalanine S-oxide]
- IC50 [1]: < 300 nM
- melting point: 162.8 °C

Compound: COc1cc(CCN2CCN(C)CC2)cc(OC)c1-c1ccc(C[C@H](NC(=O)c2c(Cl)cccc2Cl)C(=O)O)cc1 [Example 264, N-(2,6-Dichlorobenzoyl)-4-[2,6-dimethoxy-4-[2-(4-methyl-1-piperazinyl)ethyl]phenyl]-L-phenylalanine]
- IC50 [1]: < 300 nM
- melting point: 178.9 °C

Compound: COc1cc(CCN2CCCCC2)cc(OC)c1-c1ccc(C[C@H](NC(=O)c2c(Cl)cccc2Cl)C(=O)O)cc1 [Example 265, N-(2,6-Dichlorobenzoyl)-4-[2,6-dimethoxy-4-(2-piperidinoethyl)phenyl]-L-phenylalanine]
- IC50 [1]: < 300 nM
- melting point: 194.9 °C

Compound: COc1cccc(OC)c1-c1ccc(C[C@H](NC(=S)c2c(Cl)cccc2Cl)C(=O)O)cc1 [Example 266, N-(2,6-Dichlorothiobenzoyl)-4-(2,6-dimethoxyphenyl)-L-phenylalanine]
- IC50 [1]: < 300 nM
- melting point: 180.4 °C

Compound: COc1cccc(OC)c1-c1ccc(C[C@H](NC(=O)c2c(Cl)cccc2Cl)C(=O)O)s1 [Example 294, N-(2,6-Dichlorobenzoyl)-3-[5-(2,6-dimethoxyphenyl)-2-thienyl]-L-alanine]
- IC50 [1]: 1000 to 5000 nM
- melting point: 134 °C (dec.)
